In patent US10487084B2, “Toll-like receptor 7 (TLR7) agonists having a heterobiaryl moiety, conjugates thereof, and methods and uses therefor” (BRISTOL-MYERS SQUIBB COMPANY, priority 2017, dated 2019):

Experiments:
human TLR7 = human TLR7 (Homo sapiens (Human), UniProt Q9NYK1); assay: HEK-Blue TLR7 reporter assay (TLR7 agonism); type: cell-based; settings: HEK-Blue TLR7 cells, SEAP reporter, 18 h treatment
Protocol: This example describes a method for assaying TLR7 agonist activity of the compounds disclosed in this specification.
HEK-Blue™ TLR7 cells were added to each well of a 384-well tissue-culture plate (15,000 cells per well) and incubated 16-18 h at 37° C., 5% CO2. Compounds (100 nl) were dispensed into wells containing the HEK-Blue™ TLR cells and the treated cells were incubated at 37° C., 5% CO2. After 18 h treatment ten microliters of freshly-prepared Quanti-Blue™ reagent (Invivogen) was added to each well, incubated for 30 min (37° C., 5% CO2) and SEAP levels measured using an Envision plate reader (OD=620 nm).

interleukin 6 (IL-6) = assay: Interleukin 6 induction assay in human whole blood; type: cell-based; settings: 37° C. for 20 h, AlphaLISA
Protocol: This example describes a method for assaying interleukin 6 induction by compounds disclosed in this specification.
Compounds diluted in DMSO were transferred to individual wells of a Matrix Tech-nologies clear, V-bottom 384-well plate using ECHO acoustic liquid handling technology (25 nL per well). Human whole-blood samples (25 uL) were added to each well using a CyBio FeliX liquid handling instrument. The plate was shaken on a plate shaker for three min before incubating the reaction mixtures at 37° C. for 20 h. Basel RPMI 1640 medium (supplemented with L-glutamine) was then added to each well (25 uL per well) prior to liberating plasma from each sample by centrifugation (450×g, 5 min, ambient temperature). Treated plasma samples (3 uL) were subsequently transferred to individual wells of a white, shallow, 384-well ProxiPlate (Perkin Elmer) using the FeliX liquid handling instrument and their interleukin 6 levels were measured using AlphaLISA technology as described by the manufacturer, PerkinElmer. Data analyses software was used to determine compound EC50 values where the baseline was established using average DMSO values and 100% induction established using reference compound values at the highest concentration tested. EC50's can be determined with software such as Graphpad Prism™.

IFN-α = settings: fold lower potency vs corresponding purine-8-one compound; cited from earlier work

Chain of human TLR7 (Q9NYK1 27-1049): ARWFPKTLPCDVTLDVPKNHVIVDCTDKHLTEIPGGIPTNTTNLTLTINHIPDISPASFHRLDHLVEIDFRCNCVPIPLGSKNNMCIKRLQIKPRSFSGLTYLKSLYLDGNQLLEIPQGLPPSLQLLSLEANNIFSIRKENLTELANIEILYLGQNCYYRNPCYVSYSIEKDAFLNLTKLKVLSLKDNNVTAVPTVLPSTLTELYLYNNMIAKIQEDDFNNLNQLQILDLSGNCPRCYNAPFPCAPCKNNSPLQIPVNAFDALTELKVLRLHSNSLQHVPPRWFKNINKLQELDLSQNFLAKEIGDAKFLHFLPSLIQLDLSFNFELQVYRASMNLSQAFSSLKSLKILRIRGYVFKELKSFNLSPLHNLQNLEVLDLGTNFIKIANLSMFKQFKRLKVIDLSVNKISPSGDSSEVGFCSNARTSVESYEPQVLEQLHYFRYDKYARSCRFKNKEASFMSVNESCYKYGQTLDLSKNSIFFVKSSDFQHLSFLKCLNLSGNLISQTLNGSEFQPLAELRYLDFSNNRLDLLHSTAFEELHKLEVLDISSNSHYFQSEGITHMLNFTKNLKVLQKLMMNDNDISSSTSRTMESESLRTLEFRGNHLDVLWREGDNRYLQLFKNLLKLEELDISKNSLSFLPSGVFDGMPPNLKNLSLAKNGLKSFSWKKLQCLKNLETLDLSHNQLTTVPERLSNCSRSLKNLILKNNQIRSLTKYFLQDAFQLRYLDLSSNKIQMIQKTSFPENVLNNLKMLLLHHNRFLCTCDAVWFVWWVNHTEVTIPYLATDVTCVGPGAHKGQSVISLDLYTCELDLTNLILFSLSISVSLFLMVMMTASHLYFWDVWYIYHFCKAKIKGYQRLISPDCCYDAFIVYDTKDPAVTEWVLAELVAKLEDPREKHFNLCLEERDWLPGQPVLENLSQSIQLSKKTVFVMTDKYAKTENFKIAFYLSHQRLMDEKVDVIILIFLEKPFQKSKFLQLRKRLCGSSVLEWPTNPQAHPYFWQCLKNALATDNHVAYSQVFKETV

Row | Compound | EC50 (human TLR7) [nM] | EC50 (interleukin 6 (IL-6)) [nM] | potency less than that of the corresponding purine-8-one compound, as measured by IFN-α induction (IFN-α) [×]
1 | CCCCOc1nc(N)c2nc(O)n(Cc3ccccc3)c2n1 [Compound B, reference compound] | 474 |  | 
2 | CCCCOc1nc(N)c2nc(O)n(Cc3ccc(-c4cnn(CCO)c4)cc3)c2n1 [Ia-01] | 16 | 108 | 
3 | CCCCOc1nc(N)c2nc(O)n(Cc3ccc(-c4cnn(C5CNC5)c4)cc3)c2n1 [Ia-03] | 26 | 15 | 
4 | CCCCOc1nc(N)c2nc(O)n(Cc3ccc(-c4cnn(CCNC5CCC5)c4)cc3)c2n1 [Ia-04] | 7.5 | 6.9 | 
5 | CCCCOc1nc(N)c2nc(O)n(Cc3ccc(-c4cnn(CC(=O)NC5CNC5)c4)cc3)c2n1 [Ia-06] | 24 | 88.7 | 
6 | CCCCOc1nc(N)c2nc(O)n(Cc3ccc(-c4csc(CN)c4)cc3)c2n1 [Ib-01] |  | 106 | 
7 | CCCCOc1nc(N)c2nc(O)n(Cc3ccc(-c4csc(CN)c4)nc3)c2n1 [Ib-02] |  | 7.55 | 
8 | CCCCOc1nc(N)c2nc(O)n(Cc3ccc(-c4nc(CO)co4)cc3)c2n1 [Ic-01] | 99 | 365 | 
9 | CCCCOc1nc(N)c2c(n1)N(Cc1cccc(CN3CCCC3)c1)CC(=O)N2 [Vesatolimod, vesatolimod] |  |  | 100
